We go through 5 compounds from publication PMC6123676, “Androgen receptor degradation by the proteolysis-targeting chimera ARCC-4 outperforms enzalutamide in cellular models of prostate cancer drug resistance” (Communications Biology, 2018).

Like-named read-outs stand apart in the source and are kept apart here.

The term IC50 denotes the concentration that inhibits the measured activity by half. What is called DC50 is the concentration at which degradation of the target reaches its halfway point. Lower therefore signals a more potent degrader. As a reminder, the Dmax is the largest share of the target that was removed. High values mean deep degradation, low ones shallow degradation.

Experiment [1] concerns the target T1, von Hippel-Lindau (VHL) (Homo sapiens, UniProt P40337).
T1 construct: endogenous VHL in VCaP cells; with androgen receptor
The experiment can be described thus: AR degradation lost on VHL knockdown and with the non-VHL-binding epimer. It is filed as cell-based.

Experiment [2] concerns the target T2, androgen receptor (Homo sapiens, UniProt P10275). The experiment can be described thus: competition radioligand binding with [3H]R1881 (LNCaP cell lysate). The arrangement: gene AR; AR in LNCaP cell lysates.
Target sequence in this assay (P10275 whole entry): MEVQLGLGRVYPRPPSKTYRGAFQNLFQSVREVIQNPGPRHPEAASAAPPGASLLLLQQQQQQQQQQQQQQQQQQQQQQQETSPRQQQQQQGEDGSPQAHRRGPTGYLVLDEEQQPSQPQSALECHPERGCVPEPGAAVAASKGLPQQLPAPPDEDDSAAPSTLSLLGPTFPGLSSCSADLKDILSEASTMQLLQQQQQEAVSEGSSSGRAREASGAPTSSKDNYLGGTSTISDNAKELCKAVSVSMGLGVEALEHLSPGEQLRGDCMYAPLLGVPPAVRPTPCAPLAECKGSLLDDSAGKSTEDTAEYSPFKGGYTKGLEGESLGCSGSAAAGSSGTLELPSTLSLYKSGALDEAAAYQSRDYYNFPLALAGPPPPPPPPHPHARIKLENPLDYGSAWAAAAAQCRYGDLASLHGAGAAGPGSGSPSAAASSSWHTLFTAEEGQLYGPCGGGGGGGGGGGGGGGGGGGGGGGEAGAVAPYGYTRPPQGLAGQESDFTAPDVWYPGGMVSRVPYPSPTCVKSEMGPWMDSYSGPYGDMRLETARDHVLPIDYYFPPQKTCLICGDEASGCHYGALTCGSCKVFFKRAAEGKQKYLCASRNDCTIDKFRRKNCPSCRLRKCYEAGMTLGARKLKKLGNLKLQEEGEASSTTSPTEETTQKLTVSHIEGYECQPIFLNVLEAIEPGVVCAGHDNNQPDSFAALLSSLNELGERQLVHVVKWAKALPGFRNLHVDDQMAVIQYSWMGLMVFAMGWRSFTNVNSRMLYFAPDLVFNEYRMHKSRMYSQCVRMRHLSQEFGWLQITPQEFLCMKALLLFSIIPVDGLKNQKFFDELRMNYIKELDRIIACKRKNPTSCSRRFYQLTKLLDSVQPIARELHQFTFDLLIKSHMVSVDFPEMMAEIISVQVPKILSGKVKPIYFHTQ
Experiment [3] has as its target T2, androgen receptor. Also on record: gene AR.
Target sequence in this assay (P10275 whole entry): as above
Experiment [4] has as its target T2, androgen receptor. The experiment can be described thus: degradation of AR in VCaP cells, western blot (DC50; Dmax […]). Type of experiment: cell-based. Also on record: gene AR; endogenous AR in VCaP cells. Background: A western blot detects proteins with antibodies after separation by electrophoresis.
Target sequence in this assay (P10275 whole entry): as above
Experiment [5] has as its target T2, androgen receptor. The experiment can be described thus: PROTAC degradation of AR in VCaP cells, western blot (Dmax). It is filed as cell-based. The arrangement: gene AR; endogenous AR in VCaP cells; with VHL.
Target sequence in this assay (P40337 whole entry): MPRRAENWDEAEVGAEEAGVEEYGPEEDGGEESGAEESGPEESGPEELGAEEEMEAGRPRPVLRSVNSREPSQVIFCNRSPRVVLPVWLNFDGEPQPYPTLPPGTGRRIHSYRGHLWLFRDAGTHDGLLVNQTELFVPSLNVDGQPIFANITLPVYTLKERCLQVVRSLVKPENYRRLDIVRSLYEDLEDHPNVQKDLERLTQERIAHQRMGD
Target sequence in this assay (P10275 whole entry): as the sequence (P10275 whole entry) above

T1 sequence (P10275 whole entry): as above
T1 sequence (P40337 whole entry): as the sequence (P40337 whole entry) above

Take `Cc1ncsc1-c1ccc(CNC(=O)[C@@H]2C[C@@H](O)CN2C(=O)[C@@H](NC(=O)COCCCCOc2ccc(-c3ccc(N4C(=S)N(c5ccc(C#N)c(C(F)(F)F)c5)C(=O)C4(C)C)cc3)cc2)C(C)(C)C)cc1` [2c, ARCC-4]: in experiment [1], the “AR degradation lost on VHL knockdown and with the non-VHL-binding epimer” value is “confirmed that ARCC-4-mediated AR degradation is dependent upon VHL recruitment and binding”. Further, the IC50 in experiment [2] (read-out: IC50) came to 36 nM.
As to `C[C@]1(O)CC[C@H]2[C@@H]3CCC4=CC(=O)CCC4=C3C=C[C@@]21C` [R1881], the “radioligand of the AR binding assay; also out-competes ARCC-4 in VCaP cells” value in experiment [3] was “AR radioligand binding assay to determine the IC50 values for inhibiting binding between AR and (^3H) R1881”.
Regarding `CC1(C)C(=O)N(c2ccc(C#N)c(C(F)(F)F)c2)C(=S)N1CCCC(=O)NCCOCCOC(=O)CC12CC3CC(CC(C3)C1)C2` [SARD279], the half-maximal degradation concentration (DC50) in experiment [4] amounted to 1100 nM.
In experiment [5], `Cc1ncsc1-c1ccc(CNC(=O)[C@@H]2C[C@@H](O)CN2C(=O)[C@@H](NC(=O)COCCOCCOCCOc2ccc(N3C(=S)N(c4ccc(C#N)c(C(F)(F)F)c4)C(=O)C3(C)C)cc2)C(C)(C)C)cc1` [2a] displayed a Dmax of 47%.
Consider `Cc1ncsc1-c1ccc(CNC(=O)[C@@H]2C[C@H](O)CN2C(=O)[C@@H](NC(=O)COCCCCOc2ccc(-c3ccc(N4C(=S)N(c5ccc(C#N)c(C(F)(F)F)c5)C(=O)C4(C)C)cc3)cc2)C(C)(C)C)cc1` (mixture of isomers) [compound 3, epimer], for which the half-inhibitory concentration (IC50) in experiment [2] turned out to be 41 nM.
